Test results from the CheMixHub viscosity set.
Values joined by “and” are separate entries in the source; they are usually repeats but may differ in a detail not shown here. Identical values can stand only once.

Assay: xn = mol fraction of the nth substance listed

CC(O)c1ccccc1 (configuration not stated) + c1ccccc1
293.15 K, 101.32 kPa
Conditions	viscosity [mPa·s]
x1 = 0.01616	0.6575
x1 = 0.05419	0.708
x1 = 0.09606	0.7832
x1 = 0.1306	0.85
x1 = 0.1766	0.9508

Cc1ccc(O)cc1C + CC12CCC(CC1=O)C2(C)C
101.33 kPa, x1 = 0.7
Conditions	viscosity [mPa·s]
293.15 K	25.37
298.15 K	18.86
303.15 K	14.61
308.15 K	11.42
313.15 K	9.026
318.15 K	7.494
323.15 K	6.189

O=CO + CO
303.15 K, 101 kPa
Conditions	viscosity [mPa·s]
x1 = 0.0714	0.573
x1 = 0.1463	0.609
x1 = 0.2264	0.641
x1 = 0.3137	0.658
x1 = 0.4031	0.677
x1 = 0.506	0.691
x1 = 0.6149	0.75
x1 = 0.7328	0.867
x1 = 0.8604	1.062

CC(Cl)(Cl)Cl + CC1CCCO1
298.15 K, 101.33 kPa
Conditions	viscosity [mPa·s]
x1 = 0.099	0.5033
x1 = 0.2	0.5324
x1 = 0.299	0.5617
x1 = 0.398	0.5917
x1 = 0.5	0.6234
x1 = 0.6	0.655
x1 = 0.7	0.6873
x1 = 0.8	0.7209
x1 = 0.869	0.7447

CCCCCCCCn1cc[n+](C)c1.[Cl][Fe-]([Cl])([Cl])[Cl] + CCOC(C)=O
viscosity [mPa·s], 101 kPa
Conditions	x1 = 0.0999	x1 = 0.197	x1 = 0.2987	x1 = 0.3989	x1 = 0.4986	x1 = 0.6004	x1 = 0.6958	x1 = 0.7939	x1 = 0.8777
293.15 K	1.47	3.56	7.5	13.82	23.21	37.15	58.2	85.97	111.8
298.15 K	1.38	3.24	6.65	11.97	19.68	30.95	47.6	69.55	91.12
303.15 K	1.29	2.97	5.94	10.48	16.88	26.07	39.75	56.28	73.83
308.15 K	1.21	2.72	5.33	9.22	14.61	22.2	33.32	46.86	59.83
313.15 K	1.14	2.52	4.81	8.17	12.77	19.08	28.28	39.4	49.32
318.15 K	1.07	2.33	4.37	7.31	11.24	16.49	24.27	33.42	41.48
323.15 K	1.02	2.16	3.99	6.6	9.97	14.4	20.98	28.43	35.08

CC(C)C1CCCCC1 + C1C[C@@H]2[C@H]3CC[C@H](C3)[C@@H]2C1
viscosity [mPa·s], 100 kPa
Conditions	x2 = 0.1002	x2 = 0.1999	x2 = 0.3001	x2 = 0.4	x2 = 0.5	x2 = 0.5999	x2 = 0.7001	x2 = 0.8003	x2 = 0.8999
293.15 K	1.194	1.305	1.431	1.578	1.741	1.938	2.165	2.421	2.706
298.15 K	1.106	1.206	1.32	1.451	1.597	1.775	1.976	2.205	2.456
303.15 K	1.029	1.119	1.222	1.34	1.471	1.631	1.812	2.016	2.241
308.15 K	0.96	1.042	1.135	1.242	1.361	1.506	1.67	1.853	2.055
313.15 K	0.898	0.973	1.058	1.156	1.265	1.397	1.543	1.709	1.891
318.15 K	0.842	0.911	0.989	1.078	1.178	1.298	1.431	1.581	1.746
323.15 K	0.793	0.855	0.927	1.009	1.1	1.21	1.331	1.467	1.616

CC(Cl)(Cl)Cl + Cc1ccc(C)cc1
303.15 K, 101 kPa
Conditions	viscosity [mPa·s]
x1 = 0.1341	0.6079
x1 = 0.2166	0.632
x1 = 0.3072	0.6566
x1 = 0.4291	0.6846
x1 = 0.5112	0.6988
x1 = 0.6202	0.7113
x1 = 0.69	0.7164
x1 = 0.7824	0.7206
x1 = 0.8403	0.7216
x1 = 0.9044	0.7226

CC(Cl)(Cl)Cl + COC(C)=O
Conditions	viscosity
298.15 K, 101.33 kPa, x1 = 0.1	0.3907 mPa·s
298.15 K, 101.33 kPa, x1 = 0.101	0.3907 mPa·s
298.15 K, 101.33 kPa, x1 = 0.198	0.4156 mPa·s
298.15 K, 101.33 kPa, x1 = 0.199	0.4157 mPa·s
298.15 K, 101.33 kPa, x1 = 0.297	0.4438 mPa·s
298.15 K, 101.33 kPa, x1 = 0.3	0.445 mPa·s
298.15 K, 101.33 kPa, x1 = 0.398	0.4763 mPa·s
298.15 K, 101.33 kPa, x1 = 0.401	0.4774 mPa·s
298.15 K, 101.33 kPa, x1 = 0.499	0.513 mPa·s
298.15 K, 101.33 kPa, x1 = 0.5	0.5132 mPa·s and 0.5114 mPa·s
298.15 K, 101.33 kPa, x1 = 0.599	0.5525 mPa·s and 0.5545 mPa·s
298.15 K, 101.33 kPa, x1 = 0.699	0.6024 mPa·s
298.15 K, 101.33 kPa, x1 = 0.799	0.6574 mPa·s
298.15 K, 101.33 kPa, x1 = 0.901	0.7178 mPa·s
303.15 K, 101.3 kPa, x2 = 0.0993	0.6661 mPa·s
303.15 K, 101.3 kPa, x2 = 0.2042	0.6072 mPa·s
303.15 K, 101.3 kPa, x2 = 0.3008	0.5599 mPa·s
303.15 K, 101.3 kPa, x2 = 0.4008	0.5182 mPa·s
303.15 K, 101.3 kPa, x2 = 0.5039	0.4792 mPa·s
303.15 K, 101.3 kPa, x2 = 0.6038	0.4462 mPa·s
303.15 K, 101.3 kPa, x2 = 0.6968	0.4186 mPa·s
303.15 K, 101.3 kPa, x2 = 0.7992	0.3921 mPa·s
303.15 K, 101.3 kPa, x2 = 0.902	0.3668 mPa·s

O=CO + c1ccncc1
viscosity [mPa·s], 101 kPa
Conditions	298.15 K	323.15 K
x1 = 0.1605	0.9921	0.7018
x1 = 0.3041	1.235	0.8411
x1 = 0.4426	1.783	1.154
x1 = 0.5254	2.414	1.515
x1 = 0.6438	4.255	2.347
x1 = 0.7065	5.476	2.846
x1 = 0.7478	6.13	3.143
x1 = 0.7762	6.161	3.202
x1 = 0.8243	5.312	2.873
x1 = 0.8859	3.778	2.192
x1 = 0.9381	2.657	1.616

CCCC[N+](CCCC)(CCCC)CCCC.[OH-] + O
viscosity [mPa·s], 101 kPa
Conditions	x1 = 0.00178	x1 = 0.00364	x1 = 0.007655	x1 = 0.0121	x1 = 0.01706	x1 = 0.02262	x1 = 0.0289
298.15 K	1.232	1.332	1.432	2.03	2.632	3.779	4.942
303.15 K	1.088	1.173	1.258	1.697	2.233	3.129	4.045
313.15 K	0.8712	0.9342	0.9951	1.319	1.659	2.198	2.857
323.15 K	0.716	0.7632	0.8107	1.04	1.289	1.692	2.115

CNC[C@H](O)c1cccc(O)c1.Cl + CO
viscosity [mPa·s], 100 kPa
Conditions	293.15 K	298.15 K	303.15 K	308.15 K	313.15 K	318.15 K	323.15 K
x1 = 0.00048	0.6061	0.5699	0.5374	0.4992	0.4719	0.4428	0.4161
x1 = 0.00096	0.6213	0.5836	0.5482	0.5108	0.4839	0.4485	0.4228
x1 = 0.00144	0.6373	0.593	0.5581	0.5213	0.4935	0.4539	0.4302
x1 = 0.00192	0.6534	0.6059	0.5687	0.5404	0.5059	0.466	0.433
x1 = 0.0024	0.6642	0.6216	0.5828	0.5593	0.5182	0.4782	0.4357

O=CO + CCC(C)=O
viscosity [mPa·s], 101 kPa
Conditions	x1 = 0.1013	x1 = 0.2006	x1 = 0.3007	x1 = 0.3962	x1 = 0.4985	x1 = 0.602	x1 = 0.7014	x1 = 0.7972	x1 = 0.9011
298.15 K	0.4271	0.4706	0.5282	0.5841	0.6726	0.7807	0.9125	1.078	1.309
308.15 K	0.3863	0.4247	0.4703	0.5186	0.5915	0.6799	0.787	0.9165	1.095
318.15 K	0.3479	0.3801	0.4183	0.458	0.5195	0.5896	0.6771	0.7866	0.9246

CC(Cl)(Cl)Cl + CC(C)CCO
298.15 K, 101 kPa
Conditions	viscosity [mPa·s]
x1 = 0.113	3.084
x1 = 0.1681	2.72
x1 = 0.3013	2.01
x1 = 0.3885	1.663
x1 = 0.509	1.339
x1 = 0.5929	1.169
x1 = 0.692	1.035
x1 = 0.7926	0.913
x1 = 0.8991	0.817

CCCCCBr + c1ccccc1
308.15 K, 101 kPa
Conditions	viscosity [mPa·s]
x2 = 0.0961	0.6279
x2 = 0.2061	0.6028
x2 = 0.2972	0.5854
x2 = 0.3978	0.5636
x2 = 0.4978	0.5452
x2 = 0.5868	0.5316
x2 = 0.7022	0.5149
x2 = 0.8752	0.5028
x2 = 0.9275	0.503

CC(Cl)(Cl)Cl + CC#N
303.15 K, 101.32 kPa
Conditions	viscosity [mPa·s]
x2 = 0.1263	0.6581
x2 = 0.2051	0.6229
x2 = 0.2652	0.5971
x2 = 0.3855	0.5476
x2 = 0.478	0.5114
x2 = 0.6358	0.4505
x2 = 0.6802	0.4339
x2 = 0.7999	0.3906
x2 = 0.8673	0.3675
x2 = 0.9074	0.3539

O=CC(Br)(Br)Br + CCCCO
viscosity [mPa·s], 101.33 kPa
Conditions	x1 = 0.1	x1 = 0.2	x1 = 0.3	x1 = 0.4	x1 = 0.5	x1 = 0.6	x1 = 0.7	x1 = 0.797	x1 = 0.899
293.15 K	4.71	6.92	10.15	15.97	22.38	21.27	15.08	11.21	9.11
313.15 K	2.56	3.84	4.96	7.06	8.81	8.39	6.2	4.97	4.21
